# From ChEMBL document CHEMBL4130624, “Optimization of 1,4-Oxazine β-Secretase 1 (BACE1) Inhibitors Toward a Clinical Candidate” (J Med Chem, 2018)
# Legend:
# Canis familiaris [1] = test: Toxicity in male beagle dog assessed as induction of pigmentation at 20 to 250 mg/kg/day, po qd for 1 month; format: organism-based, Canis lupus familiaris; conditions: in vivo
# Canis familiaris [2] = test: Antialzheimer activity in po dosed Beagle dog assessed as reduction in amyloid beta (1 to 40) levels measured after 1 hr post dose by ELISA; format: functional, organism-based, Canis lupus familiaris
# [3] = Drug metabolism in human liver microsomes at 1 uM after 15 mins in presence of NADPH by HPLC-MS/MS analysis; format: ADME, microsome; conditions: read-out: Drug metabolism
# [4] = Ratio of fEC50 for antialzheimer activity in po dosed Beagle dog assessed as reduction in amyloid beta (1 to 40) levels to Inhibition of BACE1 (1 to 454 residues) (unknown origin); format: functional
# [5] = Cmax in male Sprague-Dawley rat at 75 mg/kg, po measured after 1 month repeated dosing by LC-MS/MS analysis; format: ADME, organism-based; set-up: dose 75 mg/kg, route oral; conditions: in vivo
# Beta-secretase 1 = Beta-secretase 1 (Homo sapiens, UniProt P56817); test: Inhibition of BACE1 in human SKNBE2 cells transfected with APP695 protein assessed as reduction in amyloid beta (1 to 42) levels after 18 hrs by sandwich alphalisa assay; format: cell-based
# Chain of Beta-secretase 1 (P56817 whole entry): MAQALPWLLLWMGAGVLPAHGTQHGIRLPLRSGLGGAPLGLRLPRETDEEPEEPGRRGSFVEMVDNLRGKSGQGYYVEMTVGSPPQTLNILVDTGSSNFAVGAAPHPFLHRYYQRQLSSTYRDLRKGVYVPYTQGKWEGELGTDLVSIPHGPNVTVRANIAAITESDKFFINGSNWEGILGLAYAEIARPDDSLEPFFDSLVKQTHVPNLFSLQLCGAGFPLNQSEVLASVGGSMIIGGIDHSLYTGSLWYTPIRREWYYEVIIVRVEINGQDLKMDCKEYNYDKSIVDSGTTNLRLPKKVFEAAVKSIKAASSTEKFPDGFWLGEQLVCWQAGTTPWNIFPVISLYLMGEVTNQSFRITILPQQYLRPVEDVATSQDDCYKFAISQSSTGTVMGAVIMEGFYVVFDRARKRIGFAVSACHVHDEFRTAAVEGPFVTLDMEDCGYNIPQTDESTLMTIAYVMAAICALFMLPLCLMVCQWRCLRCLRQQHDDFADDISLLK
# [6] = Fraction unbound in dog plasma at 5 uM after 4.5 hrs by HPLC-MS/MS method based rapid equilibrium dialysis; format: ADME, cell-free, Canis lupus familiaris
# [7] = Ratio of drug level in liver to plasma of Sprague-Dawley rat at 10 mg/kg, po; format: ADME, organism-based
# Canis familiaris [8] = test: Toxicity in male beagle dog assessed as reduction in RBC parameters at 250 mg/kg/day, po qd for 1 month; format: organism-based, Canis lupus familiaris; conditions: in vivo
# Rattus norvegicus [9] = test: Toxicity in Sprague-Dawley rat assessed as effect on food consumption at 225 mg/kg/day, po administered via gavage for 1 month; format: organism-based; conditions: in vivo
# [10] = Ratio of drug level in kidney to plasma of Sprague-Dawley rat at 10 mg/kg, po; format: ADME, organism-based
# [11] = Cmax in male Beagle dog at 70 mg/kg, po measured after 1 month repeated dosing by LC-MS/MS analysis; conditions: in vivo
# [12] = Toxicity in Sprague-Dawley rat administered daily via oral gavage for 1 month; format: organism-based; conditions: in vivo
# Canis familiaris [13] = test: Toxicity in Beagle dog assessed as induction of appearance changes at 0.63 to 20 mg/kg, po qd for 1 day; format: organism-based, Canis lupus familiaris; conditions: in vivo, 24 h
# Salmonella typhimurium [14] = test: Mutagenicity in Salmonella typhimurium TA98 up to 500 ug/ml in absence of rat liver S9 fraction by Ames 2 assay; format: toxicity, organism-based; conditions: salmonella enterica subsp. enterica serovar typhimurium
# hERG (KCNH2) = hERG (KCNH2) (Homo sapiens, UniProt Q12809); test: Inhibition of human ERG expressed in HEK293 cells assessed as reduction in outward potassium current at 3 uM at holding potential was -80 mV after 5 mins by patch clamp assay; format: cell-based; conditions: HEK293 cells that express hERG
# Chain of hERG (KCNH2) (Q12809 whole entry): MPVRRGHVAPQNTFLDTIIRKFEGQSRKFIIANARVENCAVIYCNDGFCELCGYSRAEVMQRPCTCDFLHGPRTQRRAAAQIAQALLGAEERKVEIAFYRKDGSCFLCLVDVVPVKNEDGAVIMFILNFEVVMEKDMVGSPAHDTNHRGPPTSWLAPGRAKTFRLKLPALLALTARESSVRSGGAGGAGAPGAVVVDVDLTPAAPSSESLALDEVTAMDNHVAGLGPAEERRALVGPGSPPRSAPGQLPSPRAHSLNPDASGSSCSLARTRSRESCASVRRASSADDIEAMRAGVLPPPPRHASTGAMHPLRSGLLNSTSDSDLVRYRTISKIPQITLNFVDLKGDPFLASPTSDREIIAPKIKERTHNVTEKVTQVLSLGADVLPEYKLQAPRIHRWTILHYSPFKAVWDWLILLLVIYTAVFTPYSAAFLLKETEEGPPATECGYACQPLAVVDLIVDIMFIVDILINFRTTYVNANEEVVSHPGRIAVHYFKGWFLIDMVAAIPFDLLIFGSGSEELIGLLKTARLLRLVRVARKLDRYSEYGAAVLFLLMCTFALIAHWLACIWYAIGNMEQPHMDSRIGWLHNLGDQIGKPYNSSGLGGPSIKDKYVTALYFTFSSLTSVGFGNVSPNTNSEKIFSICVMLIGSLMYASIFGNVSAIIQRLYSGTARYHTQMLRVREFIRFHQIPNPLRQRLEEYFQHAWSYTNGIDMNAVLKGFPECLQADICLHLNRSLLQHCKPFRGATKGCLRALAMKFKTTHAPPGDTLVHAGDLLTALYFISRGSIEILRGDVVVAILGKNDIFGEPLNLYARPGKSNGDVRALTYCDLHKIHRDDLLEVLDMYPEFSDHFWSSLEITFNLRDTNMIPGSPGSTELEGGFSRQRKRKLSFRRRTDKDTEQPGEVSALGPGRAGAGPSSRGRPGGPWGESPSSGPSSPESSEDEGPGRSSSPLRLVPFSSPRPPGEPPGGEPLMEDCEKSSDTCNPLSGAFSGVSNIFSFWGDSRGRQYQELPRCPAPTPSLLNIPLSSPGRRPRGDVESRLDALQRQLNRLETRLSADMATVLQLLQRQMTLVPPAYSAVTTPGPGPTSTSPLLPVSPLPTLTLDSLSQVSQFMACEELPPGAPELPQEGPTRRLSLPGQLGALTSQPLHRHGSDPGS
# [15] = Clearance in Swiss mouse at 2.5 mg/kg, iv administered as bolus dose by LC-MS/MS analysis; format: ADME, organism-based; conditions: in vivo
# Salmonella typhimurium [16] = test: Mutagenicity in Salmonella typhimurium TA98 up to 500 ug/ml in presence of rat liver S9 fraction by Ames 2 assay; format: toxicity, organism-based; conditions: salmonella enterica subsp. enterica serovar typhimurium
# [17] = molecular target: Kappa-type opioid receptor (Cavia porcellus) (UniProt P41144); test: Inhibition of Dunkin Hartley guinea pig kappa-type opioid receptor at 10 uM after 5 mins
# Chain of Kappa-type opioid receptor (Cavia porcellus) (P41144 whole entry): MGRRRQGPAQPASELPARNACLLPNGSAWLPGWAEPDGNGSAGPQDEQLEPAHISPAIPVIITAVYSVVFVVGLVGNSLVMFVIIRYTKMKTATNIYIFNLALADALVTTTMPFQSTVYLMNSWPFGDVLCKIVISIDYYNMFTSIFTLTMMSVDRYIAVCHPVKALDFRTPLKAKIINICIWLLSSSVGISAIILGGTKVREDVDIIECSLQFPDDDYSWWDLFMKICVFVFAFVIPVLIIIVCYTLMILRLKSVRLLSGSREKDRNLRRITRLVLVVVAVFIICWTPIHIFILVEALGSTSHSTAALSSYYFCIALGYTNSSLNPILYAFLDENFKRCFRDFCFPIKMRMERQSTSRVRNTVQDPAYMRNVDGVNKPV
# Cavia porcellus [18] = test: Cardiotoxicity in anesthetized guinea pigs assessed as QTcB prolongation at plasma concentration of 11500 ng/ml dosed up to 10 mg/kg, iv administered over a period of 5 min at 15 min interval by ECG analysis (reference value: 7%); format: toxicity, organism-based; conditions: guinea pig, in vivo
# Cytochrome P450 2C9 = Cytochrome P450 2C9 (Homo sapiens, UniProt P11712); test: Reversible inhibition of recombinant human CYP2C9 by fluorescence-based assay; format: ADME
# Chain of Cytochrome P450 2C9 (P11712 whole entry): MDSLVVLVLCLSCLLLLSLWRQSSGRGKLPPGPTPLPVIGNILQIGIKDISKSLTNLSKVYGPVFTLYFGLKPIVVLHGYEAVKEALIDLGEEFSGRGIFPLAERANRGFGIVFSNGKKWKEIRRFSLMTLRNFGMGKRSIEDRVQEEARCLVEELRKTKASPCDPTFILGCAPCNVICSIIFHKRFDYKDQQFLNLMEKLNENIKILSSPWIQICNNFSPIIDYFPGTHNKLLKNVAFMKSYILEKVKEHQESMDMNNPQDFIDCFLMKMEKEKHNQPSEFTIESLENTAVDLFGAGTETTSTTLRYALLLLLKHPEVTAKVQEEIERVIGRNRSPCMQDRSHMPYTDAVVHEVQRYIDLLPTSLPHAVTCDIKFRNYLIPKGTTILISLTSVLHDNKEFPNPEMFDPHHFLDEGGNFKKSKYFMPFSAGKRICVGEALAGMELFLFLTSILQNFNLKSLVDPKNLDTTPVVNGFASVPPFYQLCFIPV
# Canis familiaris [19] = test: Toxicity in Beagle dog assessed as induction of behavioural changes at 0.63 to 20 mg/kg, po qd for 6 days; format: organism-based, Canis lupus familiaris; conditions: in vivo, 144 h
# Cytochrome P450 3A4 = Cytochrome P450 3A4 (Homo sapiens, UniProt P08684); test: Time dependent inhibition of recombinant human CYP3A4 by fluorescence-based assay; format: ADME; conditions: recombinant enzyme
# Chain of Cytochrome P450 3A4 (P08684 whole entry): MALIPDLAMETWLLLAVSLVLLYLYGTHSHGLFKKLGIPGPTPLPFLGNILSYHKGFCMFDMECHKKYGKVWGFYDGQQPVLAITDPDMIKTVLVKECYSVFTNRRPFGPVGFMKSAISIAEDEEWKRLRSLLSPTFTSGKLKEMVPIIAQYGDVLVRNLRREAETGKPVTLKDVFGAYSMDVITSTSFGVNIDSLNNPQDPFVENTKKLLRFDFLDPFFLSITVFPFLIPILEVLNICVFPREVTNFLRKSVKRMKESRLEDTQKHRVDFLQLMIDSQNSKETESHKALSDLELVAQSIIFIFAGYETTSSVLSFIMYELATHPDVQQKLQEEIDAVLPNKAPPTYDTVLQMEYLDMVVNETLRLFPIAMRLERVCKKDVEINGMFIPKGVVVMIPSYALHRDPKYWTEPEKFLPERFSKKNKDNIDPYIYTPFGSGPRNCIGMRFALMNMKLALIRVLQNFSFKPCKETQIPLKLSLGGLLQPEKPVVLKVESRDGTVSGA
# Cavia porcellus [20] = test: Cardiotoxicity in anesthetized guinea pigs assessed as drug level causing QTcB prolongation dosed up to 10 mg/kg, iv administered over a period of 5 min at 15 min interval by ECG analysis; format: toxicity, organism-based; conditions: guinea pig, in vivo
# [21] = Half life in Swiss mouse at 2.5 mg/kg, iv administered as bolus dose by LC-MS/MS analysis; format: ADME, organism-based; conditions: in vivo
# Rattus norvegicus [22] = test: Toxicity in Sprague-Dawley rat assessed as induction of tissue damage at 225 mg/kg/day, po administered via gavage for 1 month; format: organism-based; conditions: in vivo
# [23] = (§1) Safety index, ratio of NOAEL for cardiotoxicity in anesthetized guinea pigs assessed as total drug level causing QTcB prolongation dosed up to 10 mg/kg, iv administered over a period of 5 min at 15 mins interval by ECG analysis to EC50 for Antialzheimer activity in po dosed Beagle dog assessed as reduction in amyloid beta (1 to 40) levels measured after 1 hr post dose by ELISA; format: toxicity, organism-based; conditions: guinea pig, in vivo
# [24] = as §1, with “free” for “total”; format: toxicity, organism-based; conditions: guinea pig, in vivo
# [25] = Cmax in female Sprague-Dawley rat at 75 mg/kg, po measured after 1 month repeated dosing by LC-MS/MS analysis; format: ADME, organism-based; set-up: dose 75 mg/kg, route oral; conditions: in vivo
# [26] = Tmax in Beagle dog at 10 mg/kg, po administered as bolus dose by LC-MS/MS analysis; format: ADME, organism-based, Canis lupus familiaris; conditions: in vivo
# Canis familiaris [27] = test: Toxicity in Beagle dog assessed as induction of behavioural changes at 0.63 to 20 mg/kg, po qd for 1 day; format: organism-based, Canis lupus familiaris; conditions: in vivo, 24 h
# Cytochrome P450 2C8 = Cytochrome P450 2C8 (Homo sapiens, UniProt P10632); test: Reversible inhibition of recombinant human CYP2C8 by fluorescence-based assay; format: ADME
# Chain of Cytochrome P450 2C8 (P10632 whole entry): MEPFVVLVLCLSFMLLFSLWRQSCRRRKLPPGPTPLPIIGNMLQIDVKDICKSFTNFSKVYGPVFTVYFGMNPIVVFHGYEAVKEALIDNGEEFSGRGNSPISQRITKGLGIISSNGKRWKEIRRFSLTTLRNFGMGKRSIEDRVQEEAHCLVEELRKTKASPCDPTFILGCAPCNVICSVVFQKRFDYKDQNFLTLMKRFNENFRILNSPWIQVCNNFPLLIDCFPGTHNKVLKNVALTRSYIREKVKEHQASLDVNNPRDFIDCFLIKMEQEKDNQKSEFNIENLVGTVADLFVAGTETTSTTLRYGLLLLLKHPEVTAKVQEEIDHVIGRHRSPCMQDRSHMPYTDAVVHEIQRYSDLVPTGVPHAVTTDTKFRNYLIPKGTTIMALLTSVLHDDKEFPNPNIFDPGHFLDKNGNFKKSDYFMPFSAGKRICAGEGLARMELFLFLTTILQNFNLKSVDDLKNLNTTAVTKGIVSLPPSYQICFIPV
# [28] = Oral bioavailability in Sprague-Dawley rat at 10 mg/kg administered as bolus dose by LC-MS/MS analysis; format: ADME, organism-based; conditions: in vivo
# [29] = Volume of distribution at steady state in Swiss mouse at 2.5 mg/kg, iv administered as bolus dose by LC-MS/MS analysis; format: ADME, organism-based; conditions: in vivo, read-out: Vdss
# [30] = Fraction unbound in rat brain at 5 uM after 5 hrs by HPLC-MS/MS method based rapid equilibrium dialysis; format: ADME, tissue-based
# [31] = AUC (0 to 24 hrs) in female Sprague-Dawley rat at 75 mg/kg, po measured after 1 month repeated dosing by LC-MS/MS analysis; format: ADME, organism-based; set-up: time < 24 hr, dose 75 mg/kg, route oral; conditions: in vivo
# Canis familiaris [32] = test: Toxicity in Beagle dog assessed as induction of appearance changes at 0.63 to 20 mg/kg, po qd for 6 days; format: organism-based, Canis lupus familiaris; conditions: in vivo, 144 h
# Canis familiaris [33] = test: Toxicity in Beagle dog assessed as drug tolerability at 0.63 to 20 mg/kg, po qd for 6 days; format: organism-based, Canis lupus familiaris; conditions: in vivo, 144 h
# Rattus norvegicus [34] = test: Toxicity in Sprague-Dawley rat assessed as phospholipidosis at 225 mg/kg/day, po administered via gavage for 1 month followed by 1 month recovery period; format: organism-based; conditions: in vivo
smiles,measurement,setting,value
C[C@]1(c2cc(NC(=O)c3ccc(C#N)cn3)ccc2F)N=C(N)CO[C@H]1C(F)(F)F,Activity,Canis familiaris [1],Non-Toxic
same,fEC50,Canis familiaris [2],0.065 µM
same,Activity,Canis familiaris [2]; Canis lupus familiaris,Dose-dependent effect
same,EC50,"Canis familiaris [2]; Canis lupus familiaris, Beagle, 1 h",0.105 µg/mL
same,"metabolised at 0.25 h, 1 µM",[3],2%
same,Ratio,[4],3
same,Cmax at 1 month,[5],1490 ng/mL
same,IC50,Beta-secretase 1,0.006 µM
same,"fraction unbound at 4.5 h, 5 µM",[6],0.26
same,Kp,[7],31
same,Activity,Canis familiaris [8],Toxic
same,Activity,Rattus norvegicus [9],Non-Toxic
same,Kp,[10],19
same,Cmax at 1 month,[11],1970 ng/mL
same,NOAEL at 1 month,[12],75 mg/kg
same,Activity,Canis familiaris [13],Non-Toxic
same,Activity,Salmonella typhimurium [14],Non-Toxic
same,"inhibition at 5 min, 3 µM",hERG (KCNH2),22%
same,clearance,[15],69 mL/min/kg
same,Activity,Salmonella typhimurium [16],Non-Toxic
same,inhibition,[17],76%
same,Activity,Cavia porcellus [18],9%
same,IC50,Cytochrome P450 2C9,> 30 µM
same,Activity,Canis familiaris [19],Non-Toxic
same,TDI,Cytochrome P450 3A4,Not Active
same,LOAEL,Cavia porcellus [20],11500 ng/mL
same,NOAEL,Cavia porcellus [20],5235 ng/mL
same,fLOAEL,Cavia porcellus [20],10.1 µM
same,fNOAEL,Cavia porcellus [20],4.6 µM
same,half-life,[21],1.4 h
same,Activity,Rattus norvegicus [22],Non-Toxic
same,selectivity ratio,[23],50
same,selectivity ratio,[24],71
same,Cmax at 1 month,[25],2720 ng/mL
same,Tmax,[26],2 h
same,Activity,Canis familiaris [27],Non-Toxic
same,IC50,Cytochrome P450 2C8,> 30 µM
same,bioavailability,[28],36%
same,Vd,[29],7.6 L/kg
same,"fraction unbound at 5 h, 5 µM",[30],0.03
same,AUC at 24 h,[31],38800 ng·h/mL
same,Activity,Canis familiaris [32],Non-Toxic
same,Activity,Canis familiaris [33],Non-Toxic
same,Activity,Rattus norvegicus [34],Non-Toxic
